Here are results for five molecules from patent US4303655A, “3,7-Disubstituted-3-cephem-4-carboxylic acid compounds” (Fujisawa Pharmaceutical Co., Ltd., priority 1976, dated 1981).

≈ marks a conversion by molar mass, not a printed value.

The subject of the experiment is E. Coli 324. Briefly: In vitro antibacterial activity by the two-fold agar-plate dilution method. The format is cell-based. Conditions: Escherichia coli, HI-agar, overnight culture 10^8 viable cells per ml., 37° C. for 20 hours, read-out: MIC (minimal inhibitory concentration). Here is the method:
In vitro antibacterial activity was determined by the two-fold agar-plate dilution method as described below. One loopful of an overnight culture of each test strain in Trypticase-soy broth (10^8 viable cells per ml.) was streaked on heart infusion agar (HI-agar) containing graded concentrations of antibiotics, and the minimal inhibitory concentration (MIC) was expressed in terms of μg/ml. after incubation at 37° C. for 20 hours.
Consider `Cn1nnnc1SCC1=C(C(=O)O)N2C(=O)C(NC(=O)C(=O)c3csc(N)n3)C2SC1` (centres unmarked) [(1)], for which the MIC is 0.05 µg/mL (≈ 0.104 µM).
As for `Nc1nc(C(=O)C(=O)NC2C(=O)N3C(C(=O)O)=C(CSc4nncs4)CSC23)cs1` (centres unmarked) [(2)], the figure is 0.05 µg/mL (≈ 0.103 µM).
For `Cc1nnc(SCC2=C(C(=O)O)N3C(=O)C(NC(=O)C(=O)c4csc(N)n4)C3SC2)s1` (centres unmarked) [(3)], the MIC turned out to be 0.05 µg/mL (≈ 0.1 µM).
Turning to `Cc1nnc(SCC2=C(C(=O)O)N3C(=O)C(NC(=O)C(=O)c4csc(N)n4)C3SC2)o1` (centres unmarked) [(4)], the MIC turned out to be 0.05 µg/mL (≈ 0.104 µM).
Consider `Cn1cnnc1SCC1=C(C(=O)O)N2C(=O)C(NC(=O)C(=O)c3csc(N)n3)C2SC1` (centres unmarked) [(5)], for which the MIC turned out to be 0.05 µg/mL (≈ 0.104 µM).
